Experimental data from patent US10548894B2, “Combination therapy” (Array BioPharma Inc., priority 2013, dated 2020).

Tests used:
CL-34 = test: 72 hr cell titer Glo proliferation assay, BRAFV600E mutant CRC cell lines; format: cell-based; settings: CL-34, single agent
Experimental: (§1) Single agent and combinatorial effects on proliferation of inhibitors of RAF (Compound of Formula (I)) and PIK3Ca (Compound X) kinases in seven BRAF-mutant CRC-derived cell lines. All cell lines express the BRAFV600E protein. Cells harboring known or putative activating mutations in the PI3Kα gene are marked with a (*) and cells with PTEN loss marked with a (#). Cell proliferation was measured in 72 hr cell titer Glo™ assays and all results supplied are the result of at least triplicate measurements. Shown are single agent IC50 values for the Compound of Formula (I) and Compound X. Synergy score (SS) measurements as well as the combination index (C150) at the 50% effect level are given for each combination) in Table 6. Interactions were deemed synergistic when SS values were ≥2.0 and CI values were ≤0.5. Interactions were deemed additive/synergistic when either SS values were ≥2.0 but CI values were >0.5 or SS values were <2.0 but CI values were ≤0.5. Interactions where termed additive when SS values were <2.0 and CI values were >0.5. Synergy calls are given in the “effect description” columns.

COLO 205 = test: as above; format: cell-based; settings: Homo sapiens, COLO 205, single agent
Experimental: as §1

OUMS-23 = test: as above; format: cell-based; settings: OUMS-23 (PTEN loss), single agent
Experimental: as §1

SNU-C5 = test: as above; format: cell-based; settings: SNU-C5 (PI3Kα mutation), single agent
Experimental: as §1

SW1417 = test: as above; format: cell-based; settings: Homo sapiens, SW1417, single agent
Experimental: as §1

RKO = test: as above; format: cell-based; settings: Homo sapiens, RKO (PI3Kα mutation), single agent
Experimental: as §1

LS411N = test: as above; format: cell-based; settings: Homo sapiens, LS-411N, single agent
Experimental: as §1

HT-29 = test: as above; format: cell-based; settings: Homo sapiens, HT-29 (PI3Kα mutation), single agent
Experimental: as §1

[1] = tested on: WM-266-4 cells expressing mutant NRASQ61K; test: ATP-based CTG (Cell Titer Glo) cell viability assay, 72 h; settings: Homo sapiens, WM-266-4 NRASQ61K, single agent
Experimental: (§2) Compound stocks are prepared in DMSO at a final concentration of 10 mM.
(§3) A-375 and WM-266-4 cells were purchased from American Type Culture Collection (ATCC). The A-375 cells were cultured in DMEM medium (ATCC) and the WM-266-4 cells were cultured in EMEM medium (ATCC) both supplemented with 10% fetal bovine serum (Gibco) and incubated at 37° C./5% CO2. The cell lines engineered to express commonly occurring alleles indicative of resistance were acquired from Novartis-Emeryville. These resistant models include, A-375 cells expressing mutant MEK1P124L, truncated p61-BRAFV600E, or mutant NRASQ61K, and WM-266-4 cells expressing mutant MEK1C121S, truncated p61-BRAFV600E, or mutant NRASQ61K. These cells were cultured in the appropriate parental medium with selection marker G418 and in the presence of 5 uM LFE158 (MEK mutants) or LIH720 (truncated p61-BRAFV600E).
(§4) For screening, cells were seeded in 80 ul of medium in 384-well plates (Thermo Scientific, cat#4332) at 500 (A-375) or 750 (WM-266-4) cell densities per well using a MultiDrop Combi (Thermo-Fisher) with an 8-channel standard cassette. To promote an even distribution of cells across the entire well, cells were briefly centrifuged at 1000 RPM and incubated at room temperature 30 minutes. All plates were incubated at 37° C., 5% CO2 for 24 h prior to compound addition. Compound stock was freshly prepared in the appropriate culture medium, and added using a PAA robot equipped with a 200n1 pin tool. In a minimum of three replicate wells, single agent and combination effects after 72 hours, were assessed by both quantification of cellular ATP levels via Cell Titer Glo (Promega) according to the manufacturer's protocol and by microscopy imaging. For imaging, cells were fixed to the plates and permeabilized with a solution of 10% PFA, 0.3% TX-100 in PBS via a WellMate dispenser with controlled dispensing speeds. Cell nuclei were stained with Hoechst 33342 (H3570, Invitrogen), and all necessary washing steps were performed by a BioTek washer. […]

[2] = tested on: A-375 cells expressing truncated p61-BRAFV600E; test: as above; settings: Homo sapiens, A-375 p61 BRafV600E, single agent
Experimental: as §2, §3, §4

[3] = tested on: WM-266-4 cells expressing truncated p61-BRAFV600E; test: as above; settings: Homo sapiens, WM-266-4 p61 BRafV600E, single agent
Experimental: as §2, §3, §4

[4] = tested on: WM-266-4 cells expressing mutant NRASQ61K; test: Microscopy imaging assay (viable nuclei count), 72 h; format: cell-based; settings: Homo sapiens, WM-266-4 NRASQ61K, single agent
Experimental: as §2, §3
as §4, with “imaging.” for “imaging. For imaging, cells were fixed to the plates and permeabilized with a solution of 10% PFA, 0.3% TX-100 in PBS via a WellMate dispenser with controlled dispensing speeds. Cell nuclei were stained with Hoechst 33342 (H3570, Invitrogen), and all necessary washing steps were performed by a BioTek washer.”
(§5) An automated image analysis pipeline was established using custom-made scripts in the open-source, statistical programming language R, and functions of the BioConductor package EBImage. The goal was to quantify the number of viable nuclei (cells) per well as an approximation for cell viability. […]

[5] = tested on: A-375 cells expressing truncated p61-BRAFV600E; test: as above; format: cell-based; settings: Homo sapiens, A-375 p61 BRafV600E, single agent
Experimental: as §2, §3
as §4, with “imaging.” for “imaging. For imaging, cells were fixed to the plates and permeabilized with a solution of 10% PFA, 0.3% TX-100 in PBS via a WellMate dispenser with controlled dispensing speeds. Cell nuclei were stained with Hoechst 33342 (H3570, Invitrogen), and all necessary washing steps were performed by a BioTek washer.”
as §5

[6] = tested on: WM-266-4 cells expressing truncated p61-BRAFV600E; test: as above; format: cell-based; settings: Homo sapiens, WM-266-4 p61 BRafV600E, single agent
Experimental: as §2, §3
as §4, with “imaging.” for “imaging. For imaging, cells were fixed to the plates and permeabilized with a solution of 10% PFA, 0.3% TX-100 in PBS via a WellMate dispenser with controlled dispensing speeds. Cell nuclei were stained with Hoechst 33342 (H3570, Invitrogen), and all necessary washing steps were performed by a BioTek washer.”
as §5

COC(=O)N[C@@H](C)CNc1nccc(-c2cn(C(C)C)nc2-c2cc(Cl)cc(NS(C)(=O)=O)c2F)n1 [Compound of Formula (I)]
IC50 (CL-34): 30 nM | IC50 (COLO 205): 5 nM | IC50 (OUMS-23): > 2700 nM | IC50 (SNU-C5): > 2700 nM | IC50 (SW1417): 235 nM | IC50 (RKO): 1960 nM | IC50 (LS411N): 18 nM | IC50 (HT-29): 49 nM | IC50 [1]: 1120 nM | IC50 [2]: 576 nM | IC50 [3]: 906 nM | IC50 [4]: 868 nM | IC50 [5]: 849 nM | IC50 [6]: 933 nM
